Laboratory results as given in US20260242419A1, “A CYCLIC PEPTIDE FOR TRAPPING INTERLEUKIN-1 BETA” (Merck Sharp & Dohme LLC, priority 2023, published 2026).
Read-outs that look alike come from different tables or passages of the source. Starred links: 1 amine or outer side, 2 acyl side, 3 side chain; linkers in the order of their positions; H or OH if unused. Non-standard residues stand in square brackets, D forms with d. Residues, ends and D or L forms follow the SMILES beside them. *: point of attachment. Trp(βS-Me,4-F) = C[C@@H](c1c[nH]c2cccc(F)c12)[C@H](N)C(=O)O; Bip(4'-COOH) = N[C@@H](Cc1ccc(-c2ccc(C(=O)O)cc2)cc1)C(=O)O; Trp(4-Cl) = N[C@@H](Cc1c[nH]c2cccc(Cl)c12)C(=O)O; X4 = O=C([C@H]1[C@@H](Cc2ccncc2)CCN1[*:1])[*:2]; Ala(pyrimidin-5-yl) = N[C@@H](Cc1cncnc1)C(=O)O; Phe(4-COOH) = N[C@@H](Cc1ccc(C(=O)O)cc1)C(=O)O; Pro(cis-4-F) = O=C(O)[C@@H]1C[C@H](F)CN1; Dap(CONH2) = NC(=O)NC[C@H](N)C(=O)O; d(αMeD) = C[C@@](N)(CC(=O)O)C(=O)O; 4Pal = N[C@@H](Cc1ccncc1)C(=O)O; Dab = NCC[C@H](N)C(=O)O; Aib = CC(C)(N)C(=O)O; Bn = c1ccc(C*)cc1

Biological target: T1, IL-1β (Homo sapiens, UniProt P01584)
T1 construct: purchased BioLegend 579404
Assay: IL-6 assay in MRC5 cells: inhibition of IL-1β induced IL-6 secretion (AlphaLISA)
Format: cell-based
Settings: inhibition of IL-1β induced IL-6 secretion in MRC5 cells, read-out: MRC5 IC50
Method in brief: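 Compound was pre-incubated 1 h at ambient temperature with recombinant human IL-1β at 2λ EC80 before adding human lung fibroblast MRC5 cells (3000/well) in EMEM with 0.025% BSA. After overnight culture at 37 °C, 5% CO2, secreted IL-6 in conditioned medium was measured by AlphaLISA; IC50 from 4-parameter logistic fits.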

T1 sequence (P01584 117-269): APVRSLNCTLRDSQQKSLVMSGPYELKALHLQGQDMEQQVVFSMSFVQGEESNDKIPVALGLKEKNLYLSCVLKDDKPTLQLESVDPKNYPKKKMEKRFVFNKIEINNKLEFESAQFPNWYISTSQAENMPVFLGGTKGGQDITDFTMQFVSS

SMILES	IC50 [nM]	IC50 (compound pre-incubated 1 hour with recombinant human IL-1β) [nM]
C[C@@H](c1c[nH]c2cccc(F)c12)[C@@H]1NC(=O)[C@@H]2C[C@H](F)CN2C(=O)CNC(=O)[C@H](Cc2ccc(C(=O)O)cc2)NC(=O)[C@H](Cc2ccncc2)NC(=O)[C@H](Cc2ccc(-c3ccc(C(=O)O)cc3)cc2)NC(=O)[C@H]2[C@@H](Cc3ccncc3)CCN2C(=O)CNC(=O)[C@H](CCN)NC(=O)[C@H](CCC(N)=O)NC(=O)[C@H](Cc2cncnc2)NC(=O)[C@@](C)(CC(=O)O)NC(=O)[C@H](Cc2c[nH]c3cccc(Cl)c23)NC(=O)[C@H](CO)NC(=O)C(C)(C)NC1=O [Example 225] (cyclo([Bip(4'-COOH)][4Pal][Phe(4-COOH)]G[Pro(cis-4-F)][Trp(βS-Me,4-F)][Aib]S[Trp(4-Cl)][d(αMeD)][Ala(pyrimidin-5-yl)]Q[Dab]G[X4]))	0.019	–
C[C@@H](c1c[nH]c2cccc(F)c12)[C@@H]1NC(=O)[C@@H]2C[C@H](F)CN2C(=O)CNC(=O)[C@H](Cc2ccc(C(=O)O)cc2)NC(=O)[C@H](Cc2ccncc2)NC(=O)[C@H](Cc2ccc(-c3ccc(C(=O)O)cc3)cc2)NC(=O)[C@H]2[C@@H](Cc3ccncc3)CCN2C(=O)CNC(=O)[C@H](CNC(N)=O)NC(=O)[C@H](CCC(N)=O)NC(=O)[C@H](Cc2cncnc2)NC(=O)[C@@](C)(CC(=O)O)NC(=O)[C@H](Cc2c[nH]c3cccc(Cl)c23)NC(=O)[C@H](CO)NC(=O)C(C)(C)NC1=O [Example 226] (cyclo([Bip(4'-COOH)][4Pal][Phe(4-COOH)]G[Pro(cis-4-F)][Trp(βS-Me,4-F)][Aib]S[Trp(4-Cl)][d(αMeD)][Ala(pyrimidin-5-yl)]Q[Dap(CONH2)]G[X4]))	0.022	–
C[C@@H](OCc1ccccc1)[C@@H]1NC(=O)[C@@](C)(CC(=O)O)NC(=O)[C@H](Cc2c[nH]c3ccccc23)NC(=O)[C@H](CO)NC(=O)C(C)(C)NC(=O)[C@H]([C@@H](C)c2c[nH]c3cccc(F)c23)NC(=O)[C@@H]2C[C@H](F)CN2C(=O)CNC(=O)[C@H](Cc2ccc(C(=O)O)cc2)NC(=O)[C@H](Cc2ccncc2)NC(=O)[C@H](Cc2ccc(-c3ccc(C(=O)O)cc3)cc2)NC(=O)[C@H]2[C@@H](Cc3ccncc3)CCN2C(=O)CNC(=O)[C@H](CCN)NC(=O)[C@H](CCC(N)=O)NC1=O [Example 229] (cyclo([Bip(4'-COOH)][4Pal][Phe(4-COOH)]G[Pro(cis-4-F)][Trp(βS-Me,4-F)][Aib]SW[d(αMeD)]T(Bn)Q[Dab]G[X4]))	–	0.023

The next lines start with the values.

IC50 [nM]	IC50 (compound pre-incubated 1 hour with recombinant human IL-1β) [nM]	SMILES
0.014	–	CO[C@H](C)[C@@H]1NC(=O)[C@@](C)(CC(=O)O)NC(=O)[C@H](Cc2c[nH]c3ccccc23)NC(=O)[C@H](CO)NC(=O)C(C)(C)NC(=O)[C@H]([C@@H](C)c2c[nH]c3cccc(F)c23)NC(=O)[C@@H]2C[C@H](F)CN2C(=O)CNC(=O)[C@H](Cc2ccc(C(=O)O)cc2)NC(=O)[C@H](Cc2ccncc2)NC(=O)[C@H](Cc2ccc(-c3ccc(C(=O)O)cc3)cc2)NC(=O)[C@H]2[C@@H](Cc3ccncc3)CCN2C(=O)CNC(=O)[C@H](CCN)NC(=O)[C@H](CCC(N)=O)NC1=O [Example 227] (cyclo([Bip(4'-COOH)][4Pal][Phe(4-COOH)]G[Pro(cis-4-F)][Trp(βS-Me,4-F)][Aib]SW[d(αMeD)]T(Me)Q[Dab]G[X4]))
0.021	–	CO[C@H](C)[C@@H]1NC(=O)[C@@](C)(CC(=O)O)NC(=O)[C@H](Cc2c[nH]c3ccccc23)NC(=O)[C@H](CO)NC(=O)C(C)(C)NC(=O)[C@H]([C@@H](C)c2c[nH]c3cccc(F)c23)NC(=O)[C@@H]2C[C@H](F)CN2C(=O)CNC(=O)[C@H](Cc2ccc(C(=O)O)cc2)NC(=O)[C@H](Cc2ccncc2)NC(=O)[C@H](Cc2ccc(-c3ccc(C(=O)O)cc3)cc2)NC(=O)[C@H]2[C@@H](Cc3ccncc3)CCN2C(=O)CNC(=O)[C@H](CNC(N)=O)NC(=O)[C@H](CCC(N)=O)NC1=O [Example 228] (cyclo([Bip(4'-COOH)][4Pal][Phe(4-COOH)]G[Pro(cis-4-F)][Trp(βS-Me,4-F)][Aib]SW[d(αMeD)]T(Me)Q[Dap(CONH2)]G[X4]))
